Results as given in patent US10308617B2, “Triazole benzamide derivatives and the compositions and methods of treatment regarding the same” (An2H Discovery Limited, priority 2016, dated 2019).

Target: T1, Parkin ligase (Homo sapiens, UniProt O60260)
T1 sequence (O60260 1-465): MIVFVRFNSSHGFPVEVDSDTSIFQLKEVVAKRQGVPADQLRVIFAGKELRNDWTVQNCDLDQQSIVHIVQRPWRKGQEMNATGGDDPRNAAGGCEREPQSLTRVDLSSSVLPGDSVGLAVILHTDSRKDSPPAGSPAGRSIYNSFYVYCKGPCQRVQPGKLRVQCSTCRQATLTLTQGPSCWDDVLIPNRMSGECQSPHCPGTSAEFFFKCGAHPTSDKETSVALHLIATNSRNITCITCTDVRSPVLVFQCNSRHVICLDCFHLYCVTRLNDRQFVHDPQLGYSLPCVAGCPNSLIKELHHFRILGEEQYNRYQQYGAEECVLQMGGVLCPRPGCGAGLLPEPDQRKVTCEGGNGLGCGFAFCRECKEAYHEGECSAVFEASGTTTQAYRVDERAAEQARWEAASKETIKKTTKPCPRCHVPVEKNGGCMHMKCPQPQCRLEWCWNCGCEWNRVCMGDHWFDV
Assay: Activity-Based Probe Assay using an Ubiquitin vinyl sulfone probe (TR-FRET)
Format: biochemical
Conditions: Parkin activation, HA-Ub-VS probe, heat activated Parkin; read-out: Probe Assay EC50 (μM) [Example 2]
Procedure: An Ubiquitin vinyl sulfone probe can be used that irreversibly binds to the active site cysteine of Parkin ligase. Covalent attachment of the probe to the Parkin can be monitored by TR-FRET. Candidate activator compounds can be identified by increasing the activity of Parkin ligase due to an increase in TR-FRET signal. Screening for activating compounds can be distinguished from the controls as follows: • 100% activation signal=Heat activated Parkin+100 nM control activator in DMSO. • 0% activation signal=Heat activated Parkin+DMSO only. • Parkin activators can be identified by an increase of the 0% activation signal TR-FRET signal.
• Assay Plate: White 384 well plate (Corning 3572) • Enzyme: Parkin-His tagged 203 μM (10.5 mg/ml) • Probe: Ubiquitin vinyl-sulfone (HA-Ub-VS Boston Biochem U-212) • DMSO: DMSO (Sigma cat # D4540-100ML) • Reaction Buffer: 50 mM HEPES (pH 8.5), 150 mM NaCl, 0.01% Tween 20, 0.1% BSA • Detection Buffer: 50 mM HEPES (pH 8.5), 150 mM NaCl, 0.01% Tween 20, 0.1% BSA, 800 mM KF • Detection Reagent A: 2.6 nM Anti-6HIS-Eu cryptate and 40 nM Anti-HA-XL665 in detection buffer • Eu cryptate: Anti-6HIS-Eu cryptate (CisBio 61HISKLA) • XL665: Anti-HA-XL665 (CisBio 610HAXLA) Enzyme Reaction (15 min pre incubation Parkin with activator only) • Parkin: 40 nM • HA-Ub-VS Probe: 70 nM • Activator/DMSO: 2× Activator/2% DMSO • Reaction time: 60 minutes • Temperature: 22° C. • Total volume: 10 μl reaction Detection Reaction • Take 10 μl of Enzyme Reaction above and add 10 μl detection Reagent A under the following conditions: • Reaction time: 60 minutes • Temperature: 22° C. • Total volume: 20 μl
Assay procedure (Using HP D-300 compound dispenser and Bravo for the operation): • 1) Heat activate Parkin in reaction buffer (500 μl/1.5 ml tube: Eppendorf Thermomixer 5 minutes, 400 rpm at 58° C. and put on ice until needed). • 2) Load assay plate wells with 4.8 μl 84.5 nM Parkin in reaction buffer by use of Bravo. • 3) Deliver 0.2 μl 200× activator candidates in DMSO by use of HP D-300 compound dispenser. Highest 200× concentration=[…] and then twofold dilutions. • 4) Spin 1000 rpm, 2 minutes, at room temp. • 5) Incubate plate for 15 minutes at room temp. • 6) Add 5 μl 140 nM HA-Ub-VS Probe in reaction buffer by use of Bravo. • 7) Spin 1000 rpm, 2 minutes, at room temp. • 8) Incubate plate for 60 minutes at room temp. • 9) Add 10 μl 2.6 nM Anti-6HIS-Eu cryptate and 40 nM Anti-HA-XL665 in detection buffer. • 10) Spin 1000 rpm, 2 minutes, at room temp. • 11) Incubate plate for 60 minutes at room temp. • 12) Read plates on Perkin Elmer Envision instrument with the following parameters: • LANCE dual laser protocol loaded into the Envision® software • Top Mirror: LANCE/DELFIA Duel/Bias (Bar code 446) • Emission Filter: APC 665 EM (Bar code 205) • 2nd Emission Filter: Europium 615 EM (Bar code 203) • Read 655 nm (channel 1) and 615 nm (channel 2) wavelengths on Envision®
Data Analysis: The Data can be read in CSV files. There are two tables in those CSV files, which are the values of 655 nm (channel 1) and 615 nm (channel 2) wavelengths respectively. The data is converted to an HTRF Ratio=(Channel 1/Channel 2)*10,000
The average of all the 0 uM controls (DMSO only)=BKGD (Background—0% activation). Subtract BKGD from each HTRF Ratio value=HTRF-BKGD. The average of all the […] 100 nM control activator in DMSO controls=Max (100% activation). The following equation is then used to calculate % Activation for each well/candidate as follows: % Activation=(HTRF-BKGD/Max)*100.
Graphpad Prisim was used with Transform X values: X=Log(X) and nonlinear regression (dose-response-stimulation): Log(agonist) vs Response—variable slope (four parameters) with constrains set to Bottom=0 and Top=100.
The Activity-Based Probe Assay was performed with various compounds in Tables 1-3.

Structure (SMILES)	EC50 [µM]
Cc1cccc(C(=O)Nc2nc(NC(=O)c3cccc(C)c3)n(-c3ccccc3)n2)c1 [Compound F3]	> 100
Cc1ccccc1C(=O)Nc1nc(NC(=O)c2ccccc2C)n(CC(C)C)n1 [Compound I3]	> 100
Cc1ccccc1C(=O)Nc1nc(NCCc2ccccc2)n(-c2ccccc2)n1 [Compound L3]	> 100
Cc1ccccc1C(=O)Nc1nc(NC(=O)c2ccncc2)n(-c2ccccc2)n1 [Compound M3]	> 100
Cc1ccccc1C(=O)Nc1nc(N)n(-c2ccccc2)n1 [Compound N3]	> 100
Cc1ccccc1C(=O)Nc1nc(NC(=O)c2ccccc2C)n(-c2ccc(F)cc2)n1 [Compound O3]	> 100
Cc1ccccc1C(=O)Nc1nc(NC(=O)c2ccccc2C)n(-c2cccnc2)n1 [Compound Y2]	> 100

Other lines, results leading:

EC50 [µM]	Structure (SMILES)
> 100	Cc1ccccc1C(=O)Nc1nc(NC(=O)c2ccccn2)n(-c2ccccc2)n1 [Compound A3]
> 100	Cc1ccccc1C(=O)Nc1nc(NC(=O)c2ccccc2C)n(-c2ccncc2)n1 [Compound B3]
> 100	Cc1ccccc1C(=O)Nc1nc(NC(=O)c2ccccc2C)n(C(C)(C)C)n1 [Compound D3]
> 100	Cc1ccccc1C(=O)Nc1nc(NC(=O)c2ccccc2F)n(-c2ccccc2)n1 [Compound E3]
74	Cc1ccccc1C(=O)Nc1nc(-c2ccncn2)nn1-c1ccccc1 [Compound G3]
37	Cc1ccccc1C(=O)Nc1nc(NC(=O)c2ccccc2C)n(C2CCCCC2)n1 [Compound J3]
17	COc1ccccc1C(=O)Nc1nc(NC(=O)c2ccccc2C)nn1-c1ccccc1 [Compound K3]
9	Cc1ccccc1C(=O)Nc1nc(NC(=O)c2ccccn2)n(-c2ccccc2)n1 [Compound P3]
